Active and inactive are the calls of the source. No cut-off for these calls is given here.
molecular target: T1, Amyloid-beta precursor protein (Homo sapiens, UniProt P05067); assay: Inhibition of amyloid beta (1 to 42 ) (unknown origin) self aggregation measured after 3 hrs by ThT fluorescence assay; conditions: not given
T1 sequence (P05067 whole entry): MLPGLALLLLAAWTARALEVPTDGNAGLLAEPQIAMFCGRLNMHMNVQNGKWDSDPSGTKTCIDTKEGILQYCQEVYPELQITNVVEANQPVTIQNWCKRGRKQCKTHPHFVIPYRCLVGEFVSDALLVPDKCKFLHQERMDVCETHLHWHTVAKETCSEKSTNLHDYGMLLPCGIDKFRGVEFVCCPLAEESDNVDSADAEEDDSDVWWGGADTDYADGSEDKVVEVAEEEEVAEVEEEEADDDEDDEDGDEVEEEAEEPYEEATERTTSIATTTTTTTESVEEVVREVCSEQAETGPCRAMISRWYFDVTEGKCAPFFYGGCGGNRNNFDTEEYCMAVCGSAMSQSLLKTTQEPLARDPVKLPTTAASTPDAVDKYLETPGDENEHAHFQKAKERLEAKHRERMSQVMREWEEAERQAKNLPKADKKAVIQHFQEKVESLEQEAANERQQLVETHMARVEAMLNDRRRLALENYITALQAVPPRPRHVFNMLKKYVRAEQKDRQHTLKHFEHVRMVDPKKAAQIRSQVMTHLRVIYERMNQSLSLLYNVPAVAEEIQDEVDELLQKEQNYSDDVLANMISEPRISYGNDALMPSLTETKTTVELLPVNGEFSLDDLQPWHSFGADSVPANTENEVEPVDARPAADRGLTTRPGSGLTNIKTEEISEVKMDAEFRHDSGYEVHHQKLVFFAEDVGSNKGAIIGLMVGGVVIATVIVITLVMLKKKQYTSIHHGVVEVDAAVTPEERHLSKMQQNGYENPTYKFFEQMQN

Structure (SMILES)	IC50 [nM]
Nc1nn(-c2c3c(nc4ccc([N+](=O)[O-])cc24)CCCC3)c2ncccc12	31800
COc1cc2nc3c(c(N4CCOCC4)c2cc1OC)CCCC3	1230
O=C(CCN1CCN(Cc2ccccc2)CC1)Nc1n[nH]c2ncccc12	13300
Cc1ccc2nc3c(c(NCCN4CCOCC4)c2c1)CCCC3	15000
O=C(CCN1CCOCC1)Nc1n[nH]c2ncccc12	2130
O=C(CCN1CCN(c2ccccc2)CC1)Nc1n[nH]c2ncccc12	1980
O=[N+]([O-])c1ccc2nc3c(c(Nc4[nH]nc5ncccc45)c2c1)CCCC3	777
CN1CCN(c2c3c(nc4ccc([N+](=O)[O-])cc24)CCCC3)CC1	4490
Cc1ccc2nc3c(c(NCCO)c2c1)CCCC3	2950
Cc1ccc2nc3c(c(N4CCCCC4)c2c1)CCCC3	6700
CC(=O)Nc1ccc2nc3c(c(N4CCCCC4)c2c1)CCCC3	1300
O=C(CN1CCN(Cc2ccccc2)CC1)Nc1n[nH]c2ncccc12	5670

test system: AChE; assay: not given; format: toxicity, cell-based; conditions: human, probe acetylthiocholine iodide; read-out: Ratio IC50

Structure (SMILES)	selectivity ratio at 72 h
Nc1nn(-c2c3c(nc4ccc([N+](=O)[O-])cc24)CCCC3)c2ncccc12	800
COc1cc2nc3c(c(N4CCOCC4)c2cc1OC)CCCC3	102
O=C(CCN1CCN(Cc2ccccc2)CC1)Nc1n[nH]c2ncccc12	735
Cc1ccc2nc3c(c(NCCN4CCOCC4)c2c1)CCCC3	72.8
O=[N+]([O-])c1ccc2nc3c(c(Nc4[nH]nc5ncccc45)c2c1)CCCC3	105
Cc1ccc2nc3c(c(N4CCCCC4)c2c1)CCCC3	321

molecular target: T1, Amyloid-beta precursor protein; assay: Inhibition of amyloid beta (1 to 42 ) (unknown origin) self aggregation at 25 uM measured after 3 hrs by ThT fluorescence assay relative to control; conditions: not given

Structure (SMILES)	inhibition [%]
Nc1nn(-c2c3c(nc4ccc([N+](=O)[O-])cc24)CCCC3)c2ncccc12	48
COc1cc2nc3c(c(N4CCOCC4)c2cc1OC)CCCC3	78.6
O=C(CCN1CCN(Cc2ccccc2)CC1)Nc1n[nH]c2ncccc12	55.5
Cc1ccc2nc3c(c(NCCN4CCOCC4)c2c1)CCCC3	54.6
O=C(CCN1CCOCC1)Nc1n[nH]c2ncccc12	71.8
O=C(CCN1CCN(c2ccccc2)CC1)Nc1n[nH]c2ncccc12	65.5
O=[N+]([O-])c1ccc2nc3c(c(Nc4[nH]nc5ncccc45)c2c1)CCCC3	81.5
CN1CCN(c2c3c(nc4ccc([N+](=O)[O-])cc24)CCCC3)CC1	66.4
Cc1ccc2nc3c(c(NCCO)c2c1)CCCC3	69.8
Cc1ccc2nc3c(c(N4CCCCC4)c2c1)CCCC3	61.9
CC(=O)Nc1ccc2nc3c(c(N4CCCCC4)c2c1)CCCC3	77.3
O=C(CN1CCN(Cc2ccccc2)CC1)Nc1n[nH]c2ncccc12	65

test system: not listed separately; assay: Metal chelating activity assessed as Cu2+-compound complex formation by measuring bathochromic shift at 30 to 60 uM by UV-visible spectrophotometry; conditions: dose 30-60 µM

Structure (SMILES)	Activity
COc1cc2nc3c(c(N4CCOCC4)c2cc1OC)CCCC3	Active
O=C(CCN1CCN(Cc2ccccc2)CC1)Nc1n[nH]c2ncccc12	Active
Cc1ccc2nc3c(c(NCCN4CCOCC4)c2c1)CCCC3	Active
O=[N+]([O-])c1ccc2nc3c(c(Nc4[nH]nc5ncccc45)c2c1)CCCC3	Active
Cc1ccc2nc3c(c(N4CCCCC4)c2c1)CCCC3	Active

test system: not listed separately; assay: Metal chelating activity assessed as Fe2+-compound complex formation by measuring hyperchromic shift at 30 to 60 uM by UV-visible spectrophotometry; conditions: dose 30-60 µM

Structure (SMILES)	Activity
Nc1nn(-c2c3c(nc4ccc([N+](=O)[O-])cc24)CCCC3)c2ncccc12	Active
COc1cc2nc3c(c(N4CCOCC4)c2cc1OC)CCCC3	Active
O=C(CCN1CCN(Cc2ccccc2)CC1)Nc1n[nH]c2ncccc12	Active
Cc1ccc2nc3c(c(NCCN4CCOCC4)c2c1)CCCC3	Active
O=[N+]([O-])c1ccc2nc3c(c(Nc4[nH]nc5ncccc45)c2c1)CCCC3	Active
Cc1ccc2nc3c(c(N4CCCCC4)c2c1)CCCC3	Active

test system: not listed separately; assay: Metal chelating activity assessed as Zn2+-compound complex formation by measuring hyperchromic shift at 30 to 60 uM by UV-visible spectrophotometry; conditions: dose 30-60 µM

Structure (SMILES)	Activity
COc1cc2nc3c(c(N4CCOCC4)c2cc1OC)CCCC3	Active
O=C(CCN1CCN(Cc2ccccc2)CC1)Nc1n[nH]c2ncccc12	Active
Cc1ccc2nc3c(c(NCCN4CCOCC4)c2c1)CCCC3	Active
O=[N+]([O-])c1ccc2nc3c(c(Nc4[nH]nc5ncccc45)c2c1)CCCC3	Active
Cc1ccc2nc3c(c(N4CCCCC4)c2c1)CCCC3	Active

test system: not listed separately; assay: Metal chelating activity assessed as Cu2+-compound complex formation by measuring hyperchromic shift at 30 to 60 uM by UV-visible spectrophotometry; conditions: dose 30-60 µM

Structure (SMILES)	Activity
COc1cc2nc3c(c(N4CCOCC4)c2cc1OC)CCCC3	Active
Cc1ccc2nc3c(c(NCCN4CCOCC4)c2c1)CCCC3	Active
O=[N+]([O-])c1ccc2nc3c(c(Nc4[nH]nc5ncccc45)c2c1)CCCC3	Active
Cc1ccc2nc3c(c(N4CCCCC4)c2c1)CCCC3	Active

test system: not listed separately; assay: Metal chelating activity assessed as Fe2+-compound complex formation by measuring bathochromic shift at 30 to 60 uM by UV-visible spectrophotometry; conditions: dose 30-60 µM

Structure (SMILES)	Activity
COc1cc2nc3c(c(N4CCOCC4)c2cc1OC)CCCC3	Active
Cc1ccc2nc3c(c(NCCN4CCOCC4)c2c1)CCCC3	Active
Cc1ccc2nc3c(c(N4CCCCC4)c2c1)CCCC3	Active

test system: not listed separately; assay: Metal chelating activity assessed as Zn2+-compound complex formation by measuring bathochromic shift at 30 to 60 uM by UV-visible spectrophotometry; conditions: dose 30-60 µM

Structure (SMILES)	Activity
Cc1ccc2nc3c(c(NCCN4CCOCC4)c2c1)CCCC3	Active
Cc1ccc2nc3c(c(N4CCCCC4)c2c1)CCCC3	Active

test system: not listed separately; assay: animal or person; format: functional; conditions: Rattus norvegicus, Sprague-Dawley, Brain, route ip, time 1 hrs

Structure (SMILES)	inhibition in vivo at 10 mg/kg [%]
COc1cc2nc3c(c(N4CCOCC4)c2cc1OC)CCCC3	35
O=C(CCN1CCN(Cc2ccccc2)CC1)Nc1n[nH]c2ncccc12	35
Cc1ccc2nc3c(c(NCCN4CCOCC4)c2c1)CCCC3	35
COc1cc2c(cc1OC)C(=O)C(CC1CCN(Cc3ccccc3)CC1)C2 (centres undefined) [DONEPEZIL]	46.5
Cc1ccc2nc3c(c(N4CCCCC4)c2c1)CCCC3	35

molecular target: T2, Acetylcholinesterase (Homo sapiens, UniProt P22303); assay: Inhibition of human recombinant AChE using acetylthiocholine as substrate preincubated for 5 mins followed by substrate addition by Ellman's method; conditions: not given
T2 sequence (P22303 whole entry): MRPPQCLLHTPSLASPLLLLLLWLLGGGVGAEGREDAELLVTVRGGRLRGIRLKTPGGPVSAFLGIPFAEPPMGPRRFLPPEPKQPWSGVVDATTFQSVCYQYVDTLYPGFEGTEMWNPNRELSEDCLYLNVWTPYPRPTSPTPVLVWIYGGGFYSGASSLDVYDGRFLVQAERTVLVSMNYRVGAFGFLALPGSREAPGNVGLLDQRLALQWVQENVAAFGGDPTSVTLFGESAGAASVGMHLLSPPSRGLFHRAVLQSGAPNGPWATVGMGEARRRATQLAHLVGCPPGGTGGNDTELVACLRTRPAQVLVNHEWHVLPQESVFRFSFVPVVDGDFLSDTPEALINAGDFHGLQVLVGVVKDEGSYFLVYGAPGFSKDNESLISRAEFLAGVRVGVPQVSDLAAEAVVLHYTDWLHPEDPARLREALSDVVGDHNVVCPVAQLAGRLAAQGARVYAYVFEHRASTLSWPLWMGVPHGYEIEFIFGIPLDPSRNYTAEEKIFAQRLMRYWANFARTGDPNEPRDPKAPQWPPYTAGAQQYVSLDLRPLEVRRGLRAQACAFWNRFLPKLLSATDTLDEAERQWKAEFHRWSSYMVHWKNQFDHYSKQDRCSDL

Structure (SMILES)	IC50 [nM]
c1ccc2c(NCCN3CCOCC3)c3c(nc2c1)CCCC3	93

molecular target: T3, Cholinesterase (Homo sapiens, UniProt P06276); assay: Inhibition of human plasma BuChE using butyrylthiocholine as substrate preincubated for 5 mins followed by substrate addition by Ellman's method; format: cell-free; conditions: not given
T3 sequence (P06276 whole entry): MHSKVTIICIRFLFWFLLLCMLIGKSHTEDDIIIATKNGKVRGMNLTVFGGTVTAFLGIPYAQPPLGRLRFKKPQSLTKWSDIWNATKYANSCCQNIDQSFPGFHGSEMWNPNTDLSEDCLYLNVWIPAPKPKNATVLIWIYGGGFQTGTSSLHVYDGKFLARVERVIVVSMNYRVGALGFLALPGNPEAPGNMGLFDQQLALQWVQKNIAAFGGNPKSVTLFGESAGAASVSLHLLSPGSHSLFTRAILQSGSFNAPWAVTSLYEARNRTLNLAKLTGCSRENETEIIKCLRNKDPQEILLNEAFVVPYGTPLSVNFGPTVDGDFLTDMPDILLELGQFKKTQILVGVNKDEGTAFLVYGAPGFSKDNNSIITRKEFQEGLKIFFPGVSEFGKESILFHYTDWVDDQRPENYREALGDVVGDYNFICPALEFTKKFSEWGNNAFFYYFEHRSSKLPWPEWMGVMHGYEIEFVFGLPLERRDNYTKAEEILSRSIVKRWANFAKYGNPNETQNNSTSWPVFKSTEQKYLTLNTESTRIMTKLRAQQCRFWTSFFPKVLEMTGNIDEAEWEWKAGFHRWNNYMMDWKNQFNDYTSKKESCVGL

Structure (SMILES)	IC50 [nM]
c1ccc2c(NCCN3CCOCC3)c3c(nc2c1)CCCC3	16

test system: not listed separately; assay: Metal chelating activity assessed as Zn2+-compound complex formation by measuring hypochromic shift at 30 to 60 uM by UV-visible spectrophotometry; conditions: dose 30-60 µM

Structure (SMILES)	Activity
Nc1nn(-c2c3c(nc4ccc([N+](=O)[O-])cc24)CCCC3)c2ncccc12	Active
COc1cc2nc3c(c(N4CCOCC4)c2cc1OC)CCCC3	Active

test system: not listed separately; assay: Toxicity in Sprague-Dawley rat assessed as mortality up to 120 mg/kg, ip administered as single dose measured after 24 hrs; format: organism-based; conditions: in vivo

Structure (SMILES)	Activity
COc1cc2nc3c(c(N4CCOCC4)c2cc1OC)CCCC3	Non-Toxic
O=C(CCN1CCN(Cc2ccccc2)CC1)Nc1n[nH]c2ncccc12	Non-Toxic

molecular target: T3, Cholinesterase; assay: not given; conditions: not given

Structure (SMILES)	IC50 [nM]
Nc1nn(-c2c3c(nc4ccc([N+](=O)[O-])cc24)CCCC3)c2ncccc12	5220
COc1cc2nc3c(c(N4CCOCC4)c2cc1OC)CCCC3	767
O=C(CCN1CCN(Cc2ccccc2)CC1)Nc1n[nH]c2ncccc12	3570
Cc1ccc2nc3c(c(NCCN4CCOCC4)c2c1)CCCC3	3130
O=C(CCN1CCOCC1)Nc1n[nH]c2ncccc12	473
O=C(CCN1CCN(c2ccccc2)CC1)Nc1n[nH]c2ncccc12	782
O=[N+]([O-])c1ccc2nc3c(c(Nc4[nH]nc5ncccc45)c2c1)CCCC3	429
CN1CCN(c2c3c(nc4ccc([N+](=O)[O-])cc24)CCCC3)CC1	166
Cc1ccc2nc3c(c(NCCO)c2c1)CCCC3	840
Cc1ccc2nc3c(c(N4CCCCC4)c2c1)CCCC3	1990
CC(=O)Nc1ccc2nc3c(c(N4CCCCC4)c2c1)CCCC3	459
O=C(CN1CCN(Cc2ccccc2)CC1)Nc1n[nH]c2ncccc12	2810

molecular target: T2, Acetylcholinesterase; assay: not given; conditions: not given

Structure (SMILES)	IC50 [nM]
Nc1nn(-c2c3c(nc4ccc([N+](=O)[O-])cc24)CCCC3)c2ncccc12	56
COc1cc2nc3c(c(N4CCOCC4)c2cc1OC)CCCC3	62
O=C(CCN1CCN(Cc2ccccc2)CC1)Nc1n[nH]c2ncccc12	34
Cc1ccc2nc3c(c(NCCN4CCOCC4)c2c1)CCCC3	131
Cc1ccc2nc3c(c(NCCCl)c2c1)CCCC3	763
Cc1ccc2nc3c(c(NCCN4CCN(C)CC4)c2c1)CCCC3	974
O=C(CCN1CCOCC1)Nc1n[nH]c2ncccc12	275
CN1CCN(CCC(=O)Nc2n[nH]c3ncccc23)CC1	844
O=C(CCN1CCN(c2ccccc2)CC1)Nc1n[nH]c2ncccc12	230
Cc1ccc2nc3c(c(N4CCN(c5c6c(nc7ccc(C)cc57)CCCC6)CC4)c2c1)CCCC3	521
O=[N+]([O-])c1ccc2nc3c(c(Nc4[nH]nc5ncccc45)c2c1)CCCC3	299
O=C(CN1CCN(c2ccccc2)CC1)Nc1n[nH]c2ncccc12	1950
CN1CCN(c2c3c(nc4ccc([N+](=O)[O-])cc24)CCCC3)CC1	245
O=[N+]([O-])c1ccc2nc3c(c(N4CCOCC4)c2c1)CCCC3	1220
Cc1ccc2nc3c(c(NCCO)c2c1)CCCC3	180
Cc1ccc2nc3c(c(N4CCN(C)CC4)c2c1)CCCC3	440
Cc1ccc2nc3c(c(N4CCCCC4)c2c1)CCCC3	118
O=C(Cn1nc2ncccc2c1NC(=O)Cn1nc2ncccc2c1NC(=O)CN1CCN(Cc2ccccc2)CC1)Nc1[nH]nc2ncccc12	18000
O=[N+]([O-])c1ccc2nc3c(c(N4CCCCC4)c2c1)CCCC3	1890
CC(=O)Nc1ccc2nc3c(c(N4CCCCC4)c2c1)CCCC3	301
CC(=O)Nc1ccc2nc3c(c(N4CCOCC4)c2c1)CCCC3	1110
O=C(CN1CCN(Cc2ccccc2)CC1)Nc1n[nH]c2ncccc12	301
Cc1ccc2nc3c(c(NCCN4CCCCC4)c2c1)CCCC3	2540
O=C(CCN1CCCCC1)Nc1n[nH]c2ncccc12	658
Cc1ccc2nc3c(c(NCCN4CCN(Cc5ccccc5)CC4)c2c1)CCCC3	6380
Cc1ccc2nc3c(c(Nc4[nH]nc5ncccc45)c2c1)CCCC3	811
Cc1ccc2nc3c(c(N4CCOCC4)c2c1)CCCC3	1780

test system: not listed separately; assay: in vivo; conditions: Sprague-Dawley, rat, ip
Description: Toxicity in Sprague-Dawley rat assessed as median lethal dose administered intraperitoneally as single dose

Structure (SMILES)	LD50 [mg/kg]
Cc1ccc2nc3c(c(NCCN4CCOCC4)c2c1)CCCC3	96.5
COc1cc2c(cc1OC)C(=O)C(CC1CCN(Cc3ccccc3)CC1)C2 (centres undefined) [DONEPEZIL]	32.5
Cc1ccc2nc3c(c(N4CCCCC4)c2c1)CCCC3	42

test system: not listed separately; assay: in vitro; conditions: human, HepG2 cells
Description: Cytotoxicity against human HepG2 cells assessed as cell growth inhibition incubated for 72 hrs by MTT assay

Structure (SMILES)	IC50 at 72 h [nM]
Nc1nn(-c2c3c(nc4ccc([N+](=O)[O-])cc24)CCCC3)c2ncccc12	44800
COc1cc2nc3c(c(N4CCOCC4)c2cc1OC)CCCC3	6300
O=C(CCN1CCN(Cc2ccccc2)CC1)Nc1n[nH]c2ncccc12	25000
Cc1ccc2nc3c(c(NCCN4CCOCC4)c2c1)CCCC3	9530
O=[N+]([O-])c1ccc2nc3c(c(Nc4[nH]nc5ncccc45)c2c1)CCCC3	31300
Cc1ccc2nc3c(c(N4CCCCC4)c2c1)CCCC3	37900

Source: ChEMBL document CHEMBL5154718, “Synthesis, biological evaluation, and molecular modeling simulations of new heterocyclic hybrids as multi-targeted anti-Alzheimer's agents” (Eur J Med Chem, 2022)
